In patent publication US5346828A, “Stereoisomeric enrichment of 2-amino-3-hydroxy-3-phenylpropionic acids using d-threonine aldolase” (Celgene Corporation, priority 1992, dated 1994):

Experiment: incubation of substrate in the same buffer without enzyme (Enzyme 0), HPLC
Assay type: physicochemical
Experimental: D,L-Threo 2-amino-2-methyl-3-hydroxy-3-phenylpropionic acid (14.1 mM) is incubated at pH 8.75 in 50 mM borate buffer and 0.8 mM pyridoxal phosphate with ruptured cells containing approximately 300 μL of enzyme.
At time intervals of approximately 30, 120 and 210 minutes, 200 μL of the incubation mixture are removed and diluted with 800 μL of 1% perchloric acid. After centrifugation of this mixture, the supernatant is analyzed on HPLC.

For `N[C@H](C(=O)O)[C@H](O)c1ccccc1` (relative stereo) [t.phi.S, 2amino-3-hydroxy-3-phenylpropionic acid], the “Percentage of total area attributable to benzaldehyde and benzoic acid” value (shortened to “Percentage of total area attributable”) (30 min.) was 0%, the “Percentage of total area attributable” value (120 min.) was 2.2% and the “Percentage of total area attributable” value (210 min.) was 3.7%.
